Data as given in patent US7928238B2, “1,2,3,4-tetrahydro-quinoline derivatives as CETP inhibitors” (Janssen Pharmaceutica NV, priority 2006, dated 2011).
pIC50: −log10 of the molar value. Several values for one entry are separate records, joined by “and”; a condition that tells them apart may be missing. Equal entries are not always repeated. Each block holds one molecule with its values, some of them ahead of it.

Assays:
CETP = target: T1, CETP (Homo sapiens, UniProt P11597); experiment: CETP in vitro assay (Amersham kit TRKQ7005; modified protocol in human plasma, [3H]CE-HDL transfer); assay type: biochemical; settings: for % Inhibition @ 1 μM / inhibition at 1 µM: 1 μM compound; for inhibition at 1 µM: read-out: % Inhibition @ 1 μM; for pIC50: from plots of % control versus compound concentration
T1 construct: from tissue; host or cells: human plasma from normal volunteers
T1 sequence (P11597 18-493): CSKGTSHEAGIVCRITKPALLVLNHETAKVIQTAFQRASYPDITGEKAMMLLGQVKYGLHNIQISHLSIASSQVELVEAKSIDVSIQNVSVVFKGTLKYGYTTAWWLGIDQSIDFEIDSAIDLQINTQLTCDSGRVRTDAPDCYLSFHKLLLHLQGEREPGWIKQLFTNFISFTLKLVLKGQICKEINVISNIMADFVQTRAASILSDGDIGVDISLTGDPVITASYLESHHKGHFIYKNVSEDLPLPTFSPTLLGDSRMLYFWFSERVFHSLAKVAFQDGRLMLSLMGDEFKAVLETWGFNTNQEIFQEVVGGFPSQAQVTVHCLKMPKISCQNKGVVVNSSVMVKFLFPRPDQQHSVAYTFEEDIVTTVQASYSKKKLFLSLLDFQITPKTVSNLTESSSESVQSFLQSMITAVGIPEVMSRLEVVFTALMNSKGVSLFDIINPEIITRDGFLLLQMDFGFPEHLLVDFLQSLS
In short: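 IC50 values were derived by plotting % of vehicle control against compound concentration. Transfer was quantified by counting supernatant radioactivity after Dextralip/MgCl2 precipitation. Compound, human plasma and [3H]CE-HDL (about 25 μg/ml, as added) were incubated 4 h or more at 37 °C, with a 4 °C plate as the non-specific blank.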

cholesterol-fed hamsters = experiment: CETP in vivo assay: lipid parameters in cholesterol-fed hamsters; settings: plasma, mean ± SEM, n = 8
Method: To determine the in vivo efficacy of a test compound, hamsters were first fed a moderately high cholesterol diet (Research Diets, D5012801) for two weeks before commencing treatment. The animals were orally gavaged with the vehicle (10% solutol, 5% ethanol, 85% D5W) and test compound for 5 days with the last dose being administered 2 hrs before sacrifice. Plasma was obtained and lipid parameters were measured.

[1] = particularly in combination with Atorvastatin; cited from earlier work
[2] = test system: rabbits had severe hypercholesterolemia; settings: rabbits with severe hypercholesterolemia; cited from earlier work
rabbits = settings: 30 mg/kg; cited from earlier work
[3] = clinical studies; cited from earlier work
[4] = 10 mg/kg oral gavage for 5 days
[5] = 30 mg/kg oral gavage for 5 days

% Inhibition @ 1 μM (CETP): 79% | inhibition at 1 µM (CETP): 85% | pIC50 (CETP): 7.47 and 7.36
SMILES: O[C@@H](CN1c2cccc(-c3cccc(OC(F)(F)F)c3)c2CC[C@@H]1c1cccc(OC(F)(F)C(F)F)c1)C(F)(F)F [Compound 78, (S)-1,1,1-trifluoro-3-((R)-2-(3-(1,1,2,2-tetrafluoroethoxy)phenyl)-5-(3-(trifluoromethoxy)phenyl)-3,4-dihydroquinolin-1 (2H)-yl)propan-2-ol]
HDL-C (cholesterol-fed hamsters; 3 mg/kg oral gavage for 5 days, last dose 2 hrs before sacrifice): 96.2 ± 4.9 mg/dL | HDL-C/LDL-C (cholesterol-fed hamsters; 3 mg/kg oral gavage for 5 days): 3.1 ± 0.2 | LDL-C (cholesterol-fed hamsters; 3 mg/kg oral gavage for 5 days): 31.6 ± 1.9 mg/dL | Total Cholesterol (cholesterol-fed hamsters; 3 mg/kg oral gavage for 5 days): 149.3 ± 7.7 mg/dL | Triglycerides (cholesterol-fed hamsters; 3 mg/kg oral gavage for 5 days): 217.7 ± 18.1 mg/dL | HDL-C (cholesterol-fed hamsters; [4]): 117.9 ± 2.9 mg/dL | HDL-C/LDL-C (cholesterol-fed hamsters; [4]): 4.3 ± 0.3 | LDL-C (cholesterol-fed hamsters; [4]): 28.1 ± 1.8 mg/dL | Total Cholesterol (cholesterol-fed hamsters; [4]): 178.5 ± 5.4 mg/dL | Triglycerides (cholesterol-fed hamsters; [4]): 325.6 ± 24.3 mg/dL | HDL-C (cholesterol-fed hamsters; [5]): 121.4 ± 2.5 mg/dL | HDL-C/LDL-C (cholesterol-fed hamsters; [5]): 4.6 ± 0.4 | LDL-C (cholesterol-fed hamsters; [5]): 27.9 ± 2.5 mg/dL | Total Cholesterol (cholesterol-fed hamsters; [5]): 188.4 ± 9.2 mg/dL | Triglycerides (cholesterol-fed hamsters; [5]): 350.8 ± 10.9 mg/dL

SMILES: CCOC(=O)N1c2ccc(C(F)(F)F)cc2[C@@H](N(Cc2cc(C(F)(F)F)cc(C(F)(F)F)c2)C(=O)OC)C[C@H]1CC [Torcetrapib]
results in Phase II trials [1]: positive results in Phase II trials

% Inhibition @ 1 μM (CETP): 39%
SMILES: OC(CN1c2cccc(-c3cccs3)c2CCC1c1cccc(OC(F)(F)C(F)F)c1)C(F)(F)F (stereo not shown) [Compound 75, 1,1,1-Trifluoro-3-{2-[3-(1,1,2,2-tetrafluoro-ethoxy)-phenyl]-5-thiophen-2-yl-3,4-dihydro-2H-quinolin-1-yl}-propan-2-ol]

inhibition at 1 µM (CETP): 13%
SMILES: C[C@@H](O)CN1c2cccc(-c3cccc(OC(F)(F)F)c3)c2CC[C@H]1c1cccc(OC(F)(F)F)c1 [Compound 54]

% Inhibition @ 1 μM (CETP): 61, 61%
SMILES: OC(CN1c2cccc(-c3ccc(OC(F)(F)F)cc3)c2CCC1c1cccc(OC(F)(F)C(F)F)c1)C(F)(F)F (stereo not shown) [Compound 7, 1,1,1-Trifluoro-3-[2-[3-(1,1,2,2-tetrafluoro-ethoxy)-phenyl]-5-(4-trifluoromethoxy-phenyl)-3,4-dihydro-2H-quinolin-1-yl]-propan-2-ol]

% Inhibition @ 1 μM (CETP): 40%
SMILES: OC(CN1c2cccc(-c3cccc(F)c3)c2CCC1c1cccc(OC(F)(F)F)c1)C(F)(F)F (stereo not shown) [Compound 58, 1,1,1-Trifluoro-3-[5-(3-fluoro-phenyl)-2-(3-trifluoromethoxy-phenyl)-3,4-dihydro-2H-quinolin-1-yl]-propan-2-ol]

SMILES: OC(CN1c2cccc(-c3cccc(Cl)c3)c2CCC1c1cccc(OC(F)(F)C(F)F)c1)C(F)(F)F (stereo not shown) [Compound 16, 3-{5-(3-Chloro-phenyl)-2-[3-(1,1,2,2-tetrafluoro-ethoxy)-phenyl]-3,4-dihydro-2H-quinolin-1-yl}-1,1,1-trifluoro-propan-2-ol]
inhibition at 1 µM (CETP): 55%

% Inhibition @ 1 μM (CETP): 96% | pIC50 (CETP): 6.59 and 6.42
SMILES: Cc1cc(-c2cccc3c2CCC(c2cccc(OC(F)(F)C(F)F)c2)N3CC(O)C(F)(F)F)ccc1Cl (stereo not shown) [Compound 5, 3-{5-(4-Chloro-3-methyl-phenyl)-2-[3-(1,1,2,2-tetrafluoro-ethoxy)-phenyl]-3,4-dihydro-2H-quinolin-1-yl}-1,1,1-trifluoro-propan-2-ol]

% Inhibition @ 1 μM (CETP): 75% and 62% | pIC50 (CETP): 6.80 and 7.03
SMILES: COc1cccc(-c2cccc3c2CCC(c2cccc(OC(F)(F)C(F)F)c2)N3CC(O)C(F)(F)F)c1 (stereo not shown) [Compound 72, 1,1,1-Trifluoro-3-{5-(3-methoxy-phenyl)-2-[3-(1,1,2,2-tetrafluoro-ethoxy)-phenyl]-3,4-dihydro-2H-quinolin-1-yl}-propan-2-ol]

SMILES: CCC(CC)CC1(C(=O)Nc2ccccc2SC(=O)C(C)C)CCCCC1 [JTT-705]
lesion development [2]: not efficacious in preventing lesion development | plasma triglycerides [2]: significant elevations of plasma triglycerides | CETP activity (rabbits): inhibited CETP activity | increased HDL-C (rabbits): +90% | reduced lesion size (rabbits): −70% | reduced non-HDL-C cholesterol (rabbits): −50% | HDL-C [3]: raise HDL-C | LDL-C [3]: modestly lower LDL-C | triglyceride levels [3]: not alter triglyceride levels

% Inhibition @ 1 μM (CETP): 11%
SMILES: OC(CN1c2cccc(-c3cccc(OC(F)(F)F)c3)c2CCC1C1CCCCC1)C(F)(F)F (stereo not shown) [Compound 37, 3-[2-Cyclohexyl-5-(3-trifluoromethoxy-phenyl)-3,4-dihydro-2H-quinolin-1-yl]-1,1,1-trifluoro-propan-2-ol]

% Inhibition @ 1 μM (CETP): 85% | pIC50 (CETP): 6.30
SMILES: OC(CN1c2cccc(-c3ccc(C(F)(F)F)cc3)c2CCC1c1cccc(OC(F)(F)C(F)F)c1)C(F)(F)F (stereo not shown) [Compound 3, 1,1,1-Trifluoro-3-[2-[3-(1,1,2,2-tetrafluoro-ethoxy)-phenyl]-5-(4-trifluoromethyl-phenyl)-3,4-dihydro-2H-quinolin-1-yl]-propan-2-ol]
